Source: publication PMC6316234, “Bromopyrrole Alkaloids from the Sponge Agelas kosrae” (Marine Drugs, 2018)
Read-outs that look alike come from different tables or passages of the source.

Tests used:
[1] = molecular target: Candida albicans-derived isocitrate lyase (ICL) (Candida albicans, UniProt Q9P8Q7); test: biochemical; format: biochemical
Procedure: A 1 mL aliquot of the reaction mixture contained 20 mM sodium phosphate buffer (pH 7.0), 1.27 mM threo-DL-(+)-isocitrate, 3.75 mM MgCl2, 4.1 mM phenylhydrazine, and 2.5 μg/mL of recombinant ICL. The reaction was immediately initiated following the addition of a substrate with or without a prescribed concentration of the inhibitor dissolved in DMSO (final concentration, 1%). Glyoxylate phenylhydrazone formation was spectrophotometrically assessed at 324 nm after incubation at 37 °C for 30 min. The percent inhibition of ICL enzyme activity for each compound was calculated relative to the inhibitor-free control and the IC50 values were calculated using nonlinear regression analysis (percent inhibition versus concentration). 3-Nitropropionic acid was used as a positive control. Protein concentrations were measured using the Bradford method with the Bio-Rad protein assay kit (Bio-Rad) and bovine serum albumin as the standard.

K562 = test: Anti-proliferative activity, SRB staining assay, K562; format: cell-based; conditions: Homo sapiens, 72 h
Procedure: (§1) Anti-proliferative activity was evaluated using SRB staining assay in various cancer cell lines (K562, A549, HCT116, MDA-MB-231, SNU638, SK-Hep-1). Cells were purchased from the American Type Culture Collection (ATCC, Rockville, MD, USA). They were cultured in media supplemented with 10% fetal bovine serum (FBS) and antibiotics–antimycotics (PSF; 100 units/mL penicillin G sodium, […], and 250 ng/mL amphotericin B). All cells were maintained at 37 °C under a humidified atmosphere containing 5% CO2. Briefly, cells were seeded in 96-well plates with various doses of compounds and incubated for 72 h. The cells were stained as previously described. First, cells were fixed with 10% trichloroacetic acid and stained with 0.4% SRB in a 1% acetic acid solution. After washing and drying, dyes were dissolved in 10 mM Tris buffer (pH 10.0) and absorbance was measured at 515 nm. The percentage of cell proliferation was determined according to the following formula: cell proliferation (%) = 100 × ((A treated − A zero day)/(A control − A zero day)), where A is the average absorbance. The IC50 values were calculated through non-linear regression analysis using TableCurve 2D v5.01 (Systat Software Inc., San Jose, CA, USA).

SNU638 = test: Anti-proliferative activity, SRB staining assay, SNU638; format: cell-based; conditions: Homo sapiens, SNU-638, 72 h, read-out: IC50 Anti-Proliferation SNU 638
Procedure: as §1

[2] = system: human umbilical vein endothelial cells (HUVEC); test: Anti-angiogenic activity, VEGF-induced tube formation assay; format: cell-based; conditions: for IC50: Homo sapiens, HUVEC, VEGF 50 ng/mL, 6 h, read-out: IC50 Anti-Angiogenesis Tube Formation
Procedure: (§2) Anti-angiogenic activity was evaluated using human umbilical vein endothelial cells (HUVEC) using previously described experimental methods. HUVEC cells were purchased from the American Type Culture Collection (ATCC, Rockville, MD, USA) and cultured in EGM-2 (Lonza, Walkerswille, MD, USA) supplemented with 10% fetal bovine serum (FBS) and antibiotics–antimycotics (PSF; 100 units/mL penicillin G sodium, […], and 250 ng/mL amphotericin B). Briefly, HUVEC cells were mixed with tested compounds in 0.5% FBS EBM-2 media stimulated with or without VEGF (50 ng/mL) on matrigel-coated 96-well plates for 6 h at 37 °C under a humidified atmosphere containing 5% CO2. After the tube formation, cells were photographed using an inverted microscope (Olympus Optical Co. Ltd., Tokyo, Japan), then images were quantified with Angiogenesis Analyzer using Image J software. Tube formation activity was calculated using the following formula: (Total segment # (tested compound) − Total segment # (VEGF−))/(Total segment # (VEGF+) − Total segment # (VEGF−)) × 100. The IC50 value was calculated through non-linear regression analysis using TableCurve 2D v5.01 (Systat Software Inc., San Jose, CA, USA). Cell viability with HUVEC cells were measured independently. First, HUVEC cells were seeded into a 96-well plate and the culture medium was replaced with a serum-free medium when it reached 60% confluency. After overnight starvation, cells were treated with samples and VEGF (50 ng/mL) in 2% FBS EBM-2 medium. Cells were further incubated for 24 h, and MTT assay was used to measure the cell viability. The formazan products were dissolved in dimethyl sulfoxide (DMSO). The absorbance was measured at 570 nm using VersaMax ELISA microplate reader (Molecular Devices, Sunnyvale, CA, USA).

SK-Hep-1 = test: Anti-proliferative activity, SRB staining assay, SK-Hep-1; format: cell-based; conditions: Homo sapiens, SK-HEP1, 72 h, read-out: IC50 Anti-Proliferation SK-Hep-1
Procedure: as §1

[3] = system: human umbilical vein endothelial cells (HUVEC); test: HUVEC cell viability, MTT assay; format: cell-based; conditions: VEGF 50 ng/mL, 24 h, read-out: IC50 Anti-Angiogenesis Cell Viability
Procedure: as §2

A549 = test: Anti-proliferative activity, SRB staining assay, A549; format: cell-based; conditions: Homo sapiens, 72 h, read-out: IC50 Anti-Proliferation A549
Procedure: as §1

MDA-MB-231 = test: Anti-proliferative activity, SRB staining assay, MDA-MB-231; format: cell-based; conditions: Homo sapiens, 72 h, read-out: IC50 Anti-Proliferation MDA-MB-231
Procedure: as §1

HCT116 = test: Anti-proliferative activity, SRB staining assay, HCT116; format: cell-based; conditions: Homo sapiens, HCT-116, 72 h, read-out: IC50 Anti-Proliferation HCT 116
Procedure: as §1

[4] = recombinant ICL, 37 °C, 30 min, read-out: IC50 ICL

Chain of Candida albicans-derived isocitrate lyase (ICL) (Q9P8Q7 whole entry): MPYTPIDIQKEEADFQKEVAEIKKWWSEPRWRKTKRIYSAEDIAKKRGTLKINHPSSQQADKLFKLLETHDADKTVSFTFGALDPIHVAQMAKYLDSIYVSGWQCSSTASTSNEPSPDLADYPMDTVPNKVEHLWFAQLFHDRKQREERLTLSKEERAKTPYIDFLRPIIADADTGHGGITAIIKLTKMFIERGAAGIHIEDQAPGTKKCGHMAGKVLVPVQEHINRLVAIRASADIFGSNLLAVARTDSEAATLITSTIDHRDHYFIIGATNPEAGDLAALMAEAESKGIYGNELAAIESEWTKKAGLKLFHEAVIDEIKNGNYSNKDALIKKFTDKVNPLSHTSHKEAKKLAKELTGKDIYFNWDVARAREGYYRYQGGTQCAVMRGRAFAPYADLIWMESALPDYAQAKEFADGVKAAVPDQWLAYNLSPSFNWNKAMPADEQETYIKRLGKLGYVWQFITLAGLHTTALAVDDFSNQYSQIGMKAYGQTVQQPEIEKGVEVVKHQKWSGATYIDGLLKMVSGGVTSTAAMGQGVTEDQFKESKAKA

IC50 (K562) [µM] | inhibition of isocitrate lyase (ICL) [1] | IC50 [1, 4] [µM] | IC50 (SNU638) [µM] | IC50 (SK-Hep-1) [µM] | IC50 (A549) [µM] | IC50 (MDA-MB-231) [µM] | IC50 (HCT116) [µM] | Structure (SMILES) | IC50 [1] [µM] | IC50 [2] [µM] | IC50 [3] [µM] | anti-angiogenic activity in the tube formation assay ([2]; non-cytotoxic concentrations range 5–20 μM)
1.08 | – | – | – | – | – | – | – | COc1cccc2c1C(=O)c1c(O)c3c(c(O)c1C2=O)C[C@@](O)(C(=O)CO)C[C@@H]3O[C@H]1C[C@H](N)[C@H](O)[C@H](C)O1 [Doxorubicin, reference compound] | – | – | – | –
26.4 | – | 85.3 | 37.1 | > 50 | 30.5 | > 50 | 38.2 | COC(=O)[C@@H]1[C@@H](CNC(=O)c2cc(Br)c[nH]2)[C@H](CNC(=O)c2cc(Br)c[nH]2)[C@H]1C(=O)OC [Compound 4, ageleste B] | – | > 40 | > 40 | –
37.6 | – | > 100 | > 50 | > 50 | > 50 | > 50 | > 50 | COC(=O)[C@@H]1[C@@H](CNC(=O)c2cc(Br)c[nH]2)[C@H](CNC(=O)c2cc(Br)c[nH]2)[C@H]1C(=O)O [Compound 3, ageleste A] | – | > 40 | > 40 | –
– | – | – | 0.63 | 0.74 | 0.83 | 3.12 | 0.73 | COc1cc([C@@H]2c3cc4c(cc3[C@@H](O[C@@H]3O[C@@H]5CO[C@@H](C)O[C@H]5[C@H](O)[C@H]3O)[C@H]3COC(=O)[C@H]23)OCO4)cc(OC)c1O [Etoposide, reference compound] | – | – | – | –

The next lines start with the compound.

Structure (SMILES) | IC50 (K562) [µM] | inhibition of isocitrate lyase (ICL) [1] | IC50 [1, 4] [µM] | IC50 (SNU638) [µM] | IC50 (SK-Hep-1) [µM] | IC50 (A549) [µM] | IC50 (MDA-MB-231) [µM] | IC50 (HCT116) [µM] | IC50 [1] [µM] | IC50 [2] [µM] | IC50 [3] [µM] | anti-angiogenic activity in the tube formation assay ([2]; non-cytotoxic concentrations range 5–20 μM)
O=C(O)CC[N+](=O)[O-] [Compound 3-NP, 3-Nitropropionic acid, reference compound] | – | – | – | – | – | – | – | – | 11.1 | – | – | –
O=C(NC[C@H]1[C@H](CNC(=O)c2cc(Br)c[nH]2)[C@@H](C(=O)O)[C@@H]1C(=O)O)c1cc(Br)c[nH]1 [Compound 2, ageleste C] | 19.1 | moderate inhibition | 22.1 | 36.8 | > 50 | 49.3 | > 50 | 44.1 | – | > 40 | > 40 | –
CCN(CC)CCNC(=O)c1c(C)[nH]c(/C=C2\C(=O)Nc3ccc(F)cc32)c1C [Sunitinib, sunitinib, reference compound] | – | – | – | – | – | – | – | – | – | 2.41 | 9.92 | –
NC1=NC(=O)C([C@@H]2[C@@H](CNC(=O)c3cc(Br)c[nH]3)[C@H](CNC(=O)c3cc(Br)c[nH]3)[C@H]2C2NC(N)=NC2=O)N1 (mixture of isomers) [Compound 1, dioxysceptrin] | 12.9 | – | > 100 | 7.92 | 35.2 | 31.3 | 32.8 | 9.93 | – | 7.99 | > 40 | moderate anti-angiogenic activity
